Test results reported in a flash point compilation (Sun et al. 2020).
Blank lines part the entries; values can stand above or below the molecule they belong to.

Experiments:
[1] = not given; remark: listed apart in the source
[2] = not given; remark: listed apart in the source
[3] = not given; remark: listed apart in the source
[4] = not given; remark: listed apart in the source
[5] = not given; remark: listed apart in the source

flash point [1]: 73.8 °C
SMILES: CCC[C@H](Cl)CCCC(C)C [(S)-6-Chloro-2-methylnonane]

flash point [4]: 28.00 °C
SMILES: CC(C)[O-].CC(C)[O-].CC(C)[O-].[B+3] [BORON ISOPROPOXIDE]

flash point [4]: -1.00 °C
SMILES: C[O-].C[O-].C[O-].[B+3] [BORON METHOXIDE]

flash point [4]: 127.00 °C
SMILES: CCCCC(CC)C(=O)[O-].CCCCC(CC)C(=O)[O-].[Ca+2] (stereo unspecified) [CALCIUM 2-ETHYLHEXANOATE]

flash point [4]: 10.00 °C
SMILES: CC[N-]C.CC[N-]C.CC[N-]C.CC[N-]C.[Hf+4] [HAFNIUM TETRAKIS(ETHYLMETHYLAMIDE)]

flash point [4]: 48.00 °C
SMILES: C[O-].C[O-].C[O-].C[O-].[Ti+4] [TITANIUM METHOXIDE]

flash point [4]: 147.00 °C
SMILES: CCCCCCCCP(CCCCCCCC)CCCCCCCC [TRIOCTYLPHOSPHINE]

flash point [4]: 42.00 °C
SMILES: C[Si](C)(C)OB(O[Si](C)(C)C)O[Si](C)(C)C [TRIS(TRIMETHYLSILOXY)BORON]

flash point [4]: 62.00 °C
SMILES: C=C[c-]1cccc1.[Fe+2].c1cc[cH-]c1 [VINYLFERROCENE]

flash point [4]: 127.00 °C
SMILES: CCCCC(CC)C(=O)[O-].CCCCC(CC)C(=O)[O-].[Zn+2] (stereo unspecified) [ZINC 2-ETHYLHEXANOATE]

flash point [4]: 102.00 °C
SMILES: CC(C)(C)CCCCCC(=O)[O-].CC(C)(C)CCCCCC(=O)[O-].[Zn+2] [ZINC NEODECANOATE]

flash point [4]: 10.00 °C
SMILES: CC[N-]C.CC[N-]C.CC[N-]C.CC[N-]C.[Zr+4] [ZIRCONIUM TETRAKIS(ETHYLMETHYLAMIDE)]

flash point: 95.5 °C
flash point [5]: 95 °C
SMILES: CCCCCCCc1ccccc1 [heptylbenzene]

flash point: 83.6 °C
SMILES: CCCCCCc1ccccc1 [hexylbenzene]

flash point: 51.1 °C
SMILES: CCc1cccc(CC)c1 [m -diethylbenzene]

flash point: 63 °C
SMILES: CCc1cccc(C(C)C)c1 [m -ethylcumene]

flash point: 52 °C
SMILES: CCCc1cccc(C)c1 [m -propyltoluene]

flash point: 50.1 °C
SMILES: CC(C)(C)Cc1ccccc1 [neopentylbenzene]

flash point: 107.1 °C
SMILES: CCCCCCCCc1ccccc1 [octylbenzene]

flash point: 65.8 °C
SMILES: CCc1ccc(C(C)C)cc1 [p -ethylcumene]

flash point: 56.4 °C
SMILES: CCCc1ccc(C)cc1 [p -propyltoluene]

flash point: 44.1 °C
SMILES: CC(C)(C)c1ccccc1 [tert -butylbenzene]

More lines, now with the values behind:

SMILES: CCc1cccc(CC)c1CC [1,2,3-triethylbenzene]
flash point: 79 °C

SMILES: Cc1cc(C)cc(C)c1 [1,3,5-trimethylbenzene]
flash point: 44.1 °C

SMILES: CCCCc1cccc(CCCC)c1 [1,3-dibutylbenzene]
flash point: 109.2 °C

SMILES: CC(C)(C)c1ccc(C(C)(C)C)cc1 [1,4-di-tert -butylbenzene]
flash point: 97.0 °C

SMILES: Cc1ccc(C)c(C(C)C)c1 [1,4-dimethyl-2-isopropylbenzene]
flash point: 64.7 °C

SMILES: CCCCCl [1-Chlorobutane]
flash point [1]: -11.0 °C
flash point [2]: -9.3 °C

SMILES: CCCCc1cccc(C)c1 [1-butyl-3-methylbenzene]
flash point: 70.8 °C

SMILES: CCCCc1ccc(C)cc1 [1-butyl-4-methylbenzene]
flash point: 71.2 °C

SMILES: CCc1cccc(C)c1C [1-ethyl-2,3-dimethylbenzene]
flash point: 65.1 °C

SMILES: CCc1ccc(C)cc1C [1-ethyl-2,4-dimethylbenzene]
flash point: 57.1 °C

SMILES: CCc1cc(C)cc(C)c1 [1-ethyl-3,5-dimethylbenzene]
flash point: 57.4 °C

SMILES: Cc1ccccc1CC(C)C [1-isobutyl-2-methylbenzene]
flash point: 68.7 °C

SMILES: Cc1cc(C)cc(C(C)(C)C)c1 [1-tert -butyl-3,5-dimethylbenzene]
flash point: 72 °C

SMILES: CC(C)(C)CC(C)(C)Cl [2-Chloro-2,4,4-trimethylpentane]
flash point [1]: 38.4 °C

SMILES: CCCCCC(C)(C)Cl [2-Chloro-2-methylheptane]
flash point [1]: 47.2 °C

SMILES: CCCCCCCC(C)(C)Cl [2-Chloro-2-methylnonane]
flash point [1]: 72.2 °C

SMILES: CCCC(C)(C)Cl [2-Chloro-2-methylpentane]
flash point [1]: 21 °C

SMILES: CCCCCCCCC(C)Cl (stereo unspecified) [2-Chlorodecane]
flash point [1]: 77.1 °C

SMILES: CCCCC(C)Cl (stereo unspecified) [2-Chlorohexane]
flash point [1]: 25.1 °C

SMILES: CCCCCCCC(C)Cl (stereo unspecified) [2-Chlorononane]
flash point [1]: 65.2 °C

SMILES: CCc1c(C)cccc1C [2-ethyl-1,3-dimethylbenzene]
flash point: 62.0 °C

SMILES: CCC(C)(C)c1ccccc1 [2-phenyl-2-methylbutane]
flash point: 59.4 °C
flash point [3]: 65 °C

SMILES: Cc1ccccc1C(C)(C)C [2-tert -butyltoluene]
flash point: 61.5 °C

SMILES: CCC(CC)CCl [3-(Chloromethyl)pentane]
flash point [1]: 25.1 °C

SMILES: CCCC(C)(Cl)C(C)(C)C (stereo unspecified) [3-Chloro-2,2,3-trimethylhexane]
flash point [1]: 51.7 °C

SMILES: CCCC(C)(Cl)C(C)C (stereo unspecified) [3-Chloro-2,3-dimethylhexane]
flash point [1]: 43.6 °C

SMILES: CCC(Cl)(CC)CC [3-Chloro-3-ethylpentane]
flash point [1]: 33.6 °C

SMILES: CCCCC(C)(Cl)CC (stereo unspecified) [3-Chloro-3-methylheptane]
flash point [1]: 47.2 °C

SMILES: CCCCCCC(C)(Cl)CC (stereo unspecified) [3-Chloro-3-methylnonane]
flash point [1]: 72.2 °C

SMILES: CCC(C)(Cl)CC [3-Chloro-3-methylpentane]
flash point [1]: 9.5 °C

SMILES: CCCCC(Cl)CC (stereo unspecified) [3-Chloroheptane]
flash point [1]: 39.2 °C

SMILES: CCCC(Cl)CC (stereo unspecified) [3-Chlorohexane]
flash point [1]: 25.1 °C

SMILES: CCCCC(Cl)CCCC [5-Chlorononane]
flash point [1]: 65.2 °C

SMILES: CCCCCCCCC(Cl)CCCC (stereo unspecified) [5-Chlorotridecane]
flash point [1]: 110.1 °C

SMILES: CC(C)CC(C)Cc1ccccc1 (stereo unspecified) [(2,4-dimethylpentyl)benzene]
flash point: 87.0 °C

SMILES: CCC(C)Cc1ccccc1 (stereo unspecified) [(2-methylbutyl)benzene]
flash point: 64.1 °C

SMILES: CCCC[O-].CCCC[O-].CCCC[O-].[B+3] [BORON n-BUTOXIDE]
flash point [4]: 93.00 °C

SMILES: [CH3][Cd][CH3] [DIMETHYLCADMIUM]
flash point [4]: -18.00 °C

SMILES: c1ccc(Pc2ccccc2)cc1 [DIPHENYLPHOSPHINE]
flash point [4]: 110.00 °C

SMILES: C[CH2][Pb]([CH2]C)([CH2]C)[CH2]C [TETRAETHYLLEAD]
flash point [4]: 73.00 °C

SMILES: CC(C)C[O-].CC(C)C[O-].CC(C)C[O-].CC(C)C[O-].[Ti+4] [TITANIUM ISOBUTOXIDE]
flash point [4]: 77.00 °C

SMILES: Cc1ccccc1[O-].Cc1ccccc1[O-].Cc1ccccc1[O-].Cc1ccccc1[O-].[Ti+4] [TITANIUM METHYLPHENOXIDE]
flash point [4]: 66.00 °C

SMILES: C[N-]C.C[N-]C.C[N-]C.C[N-]C.[Ti+4] [TITANIUM TETRAKIS(DIMETHYLAMIDE)]
flash point [4]: 8.00 °C

SMILES: CCCC[O-].CCCC[O-].CCCC[O-].CCCC[O-].[Ti+4] [TITANIUM n-BUTOXIDE]
flash point [4]: 76.00 °C

SMILES: CCOP(OCC)OCC [TRIETHYLPHOSPHITE]
flash point [4]: 54.00 °C

SMILES: CC[N](CC)[Ta](=[N]C(C)(C)C)([N](CC)CC)[N](CC)CC [TRIS(DIETHYLAMINO)(t-BUTYLIMINO) TANTALUM]
flash point [4]: 46.00 °C

SMILES: CCCCc1ccccc1 [butylbenzene]
flash point: 58.1 °C
flash point [5]: 49 °C

SMILES: CC(C)Cc1ccccc1 [isobutylbenzene]
flash point: 50.1 °C
flash point [5]: 55 °C

SMILES: Cc1ccccc1C [o -xylene]
flash point: 30.1 °C
